From article PMC10144566, “Pharmacokinetic Profile Evaluation of Novel Combretastatin Derivative, LASSBio-1920, as a Promising Colorectal Anticancer Agent” (Pharmaceutics, 2023)
“Also recorded” adds a separate entry of the source. Read-outs that look alike come from different tables or passages of the source.

Legend:
[1] = test system: PC-3, prostate adenocarcinoma; test: MTT cytotoxicity assay, PC-3; conditions: Homo sapiens, 72 h, read-out: IC50 (95% CI) PC-3
Protocol: (§1) The cytotoxicity of the compounds was determined using the MTT assay [13]. Cells were seeded in 96-well plates as follows: 0.7 × 10^5 cells/well for adherent cancer cells, 0.3 × 10^5 cells/well for suspended cancer cells, and 0.2 × 10^5 cells/well for HPBMCs. […] The control group was treated with the vehicle. […] After incubation, the supernatant was decanted and replaced with fresh medium containing MTT (0.5 mg/mL).
(§2) Data were presented as mean ± standard error of the mean (SEM) from three independent experiments performed in triplicate, calculated using Prism 8.0 (GraphPad/Intuitive Software for Science, San Diego, CA, USA). The IC50 of the compounds was obtained using a non-linear regression of the cytotoxicity curves.

[2] = test system: H-1975, non-small cell lung adenocarcinoma; test: MTT cytotoxicity assay, H-1975; conditions: Homo sapiens, NCI-H1975, 72 h, read-out: IC50 (95% CI) H-1975
Protocol: as §1, §2

[3] = molecular target: human CK-1δ protein kinase (Homo sapiens, UniProt P48730); test: Inhibition of human CK-1δ protein kinase (Kinase-Glo); type: biochemical; conditions: data not shown, read-out: inhibitory activity against human CK-1δ protein kinase
human CK-1δ protein kinase, sequence (P48730 whole entry): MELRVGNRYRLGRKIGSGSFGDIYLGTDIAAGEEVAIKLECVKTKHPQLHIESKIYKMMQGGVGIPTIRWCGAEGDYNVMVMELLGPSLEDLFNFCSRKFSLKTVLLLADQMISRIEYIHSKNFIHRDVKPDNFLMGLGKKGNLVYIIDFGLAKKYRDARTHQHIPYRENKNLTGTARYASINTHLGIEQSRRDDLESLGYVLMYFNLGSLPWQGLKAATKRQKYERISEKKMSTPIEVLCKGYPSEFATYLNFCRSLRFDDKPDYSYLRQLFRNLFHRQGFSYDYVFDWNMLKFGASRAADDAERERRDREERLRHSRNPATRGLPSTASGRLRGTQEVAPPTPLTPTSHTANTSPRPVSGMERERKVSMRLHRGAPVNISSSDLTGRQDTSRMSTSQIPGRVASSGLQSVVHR
Protocol: Inhibition of human CK-1δ protein kinase assay: Test compound (10 µL), CK-1δ enzyme (10 µL), and buffer solution (20 µL) were added to each well of a 96-well plate containing 0.1% casein as substrate and 4 µM ATP. The assay buffer solution constituents were 50 mM HEPES at pH 7.5, 0.01% Brij-35, […], 1 mM EDTA, and 0.01% NaN3. The final concentrations of DMSO were limited to 1%. After 60 min of incubation at 30 °C, the reaction was stopped by the addition of 40 µL of Kinase-Glo®. The luminescence was measured after 10 min using a Fluostar Optima multimode reader (BMG Labtechnologies GmbH, Offenburg, Germany). First, LASSBio-1920 was tested at concentrations of 10 µM, and 5 µM of SB415826, a potent CK-1δ enzyme inhibitor, was employed as a positive control.

[4] = In vitro plasma stability; type: in vitro ADME; conditions: rat plasma, 37 °C, 100 μM
Protocol: The in vitro stability of the test compounds was studied in rat plasma. Blood from different Wistar rats was centrifuged with heparin at 20 °C for 15 min at 2000 rpm to separate the plasma, which was diluted to 80% with 0.05 M phosphate-buffered saline (PBS, pH 7.4) at 37 °C [23]. The test compounds were added to 200 µL of preheated plasma solution to yield a final concentration of 100 μM. The final concentration of DMSO in the incubation mixture was 0.5%. The assays were performed with agitation in a water bath at 37 °C and conducted in triplicate. Samples were taken at 0, 30, 60, and 240 min. After each sampling time, 500 µL of cold methanol was added to the mixture immediately, followed by 500 µL of cold acetonitrile. The samples were mixed and centrifuged at room temperature for 15 min at 13,000 rpm. The supernatant was analyzed by HPLC (acetonitrile/water, 7:3, with 0.1% trifluoroacetic acid) using an internal standard (4-acetylbiphenyl—final concentration of 20 µM).

[5] = test system: SF-295, glioblastoma; test: MTT cytotoxicity assay, SF-295; conditions: Homo sapiens, SF-295, 72 h, read-out: IC50 (95% CI) SF-295
Protocol: as §1, §2

[6] = test system: HCT-116 human colorectal cancer cells (colon carcinoma); test: MTT cytotoxicity assay, HCT-116; conditions: for IC50: Homo sapiens
Protocol: as §1, §2

[7] = test system: PC-9, lung adenocarcinoma (overexpressed EGFR with L858R mutation); test: MTT cytotoxicity assay, PC-9; conditions: for IC50: Homo sapiens
Protocol: as §1, §2

[8] = Chemical stability in buffer (HPLC); type: physicochemical; conditions: 0–240 min
[9] = molecular target: T1, EGFR-wt (Homo sapiens, UniProt P00533); test: Inhibition of EGFR, LANCE TR-FRET assay; type: biochemical; conditions: 1 and 10 µM (either concentration); data not shown
T1 construct: Eurofins
T1 sequence (P00533 25-1210): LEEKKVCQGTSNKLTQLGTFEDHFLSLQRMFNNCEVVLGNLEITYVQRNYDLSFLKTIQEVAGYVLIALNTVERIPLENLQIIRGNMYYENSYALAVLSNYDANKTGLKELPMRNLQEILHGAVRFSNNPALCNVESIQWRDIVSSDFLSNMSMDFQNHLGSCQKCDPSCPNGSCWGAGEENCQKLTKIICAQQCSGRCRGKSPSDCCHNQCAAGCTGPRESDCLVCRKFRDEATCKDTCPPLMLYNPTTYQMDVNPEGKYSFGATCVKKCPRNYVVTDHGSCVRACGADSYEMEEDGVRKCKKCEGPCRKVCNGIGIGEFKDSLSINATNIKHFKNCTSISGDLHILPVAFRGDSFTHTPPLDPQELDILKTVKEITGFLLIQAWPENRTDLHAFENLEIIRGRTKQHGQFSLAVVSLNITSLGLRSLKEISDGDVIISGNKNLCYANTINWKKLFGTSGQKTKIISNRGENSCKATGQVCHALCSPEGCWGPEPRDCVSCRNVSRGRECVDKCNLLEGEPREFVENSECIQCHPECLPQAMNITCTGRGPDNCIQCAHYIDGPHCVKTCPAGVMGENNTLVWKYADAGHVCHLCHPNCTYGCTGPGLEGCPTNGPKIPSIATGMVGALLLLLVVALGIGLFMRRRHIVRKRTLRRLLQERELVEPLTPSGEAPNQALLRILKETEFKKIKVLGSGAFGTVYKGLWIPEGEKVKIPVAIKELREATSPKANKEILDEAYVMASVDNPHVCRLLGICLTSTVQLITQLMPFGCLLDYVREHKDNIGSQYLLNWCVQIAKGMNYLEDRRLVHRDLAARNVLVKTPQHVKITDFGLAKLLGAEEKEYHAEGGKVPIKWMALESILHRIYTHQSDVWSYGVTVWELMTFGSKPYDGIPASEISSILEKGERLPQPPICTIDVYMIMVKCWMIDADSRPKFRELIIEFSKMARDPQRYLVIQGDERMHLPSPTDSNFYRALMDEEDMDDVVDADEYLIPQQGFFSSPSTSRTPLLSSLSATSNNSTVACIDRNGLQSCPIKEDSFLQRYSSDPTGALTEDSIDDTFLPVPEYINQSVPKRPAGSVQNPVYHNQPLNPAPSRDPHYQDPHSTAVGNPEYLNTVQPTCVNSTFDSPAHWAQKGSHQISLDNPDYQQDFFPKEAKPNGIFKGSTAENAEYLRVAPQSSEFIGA
Protocol: Inhibition of EGFR assay: The inhibition of EGFR activity was determined using the LANCE®TR-FRET (time-resolved fluorescence energy transfer) test according to the protocol described by Weber et al. (1984). The reference compound (PD153035) was tested simultaneously with LASSBio-1920 (1 and 10 µM). The LASSBio-1920 concentrations were determined based on IC50 values and the compound’s aqueous solubility. The experiment was carried out in agreement with Eurofins®’s Standard Operating Procedure.

[10] = IC50 for HPBMC/IC50 for the tumor cell line, 72 h

Compound: COc1cc(C(=O)N/N=C/c2cc3ccccc3s2)cc(OC)c1OC [LASSBio-1920, (E)-N′-(Benzo[b]thiophen-2-ylmethylene)-3,4,5-trimethoxybenzohydrazide]
- IC50 [1]: 1680 nM
- IC50 [2]: 210 nM
- inhibition at 10 µM [3]: < 10%
- plasma stability [4]: stable at all time points of the assay; also recorded: not metabolized by plasma esterases, exhibiting substantial stability; also recorded: has plasma stability
- IC50 [5]: 110 nM
- IC50 ([6]; HCT-116, 24 h, read-out: IC50 (95% CI) HCT-116 24 h): > 100000 nM
- IC50 ([6]; HCT-116, 48 h, read-out: IC50 (95% CI) HCT-116 48 h): 2700 nM
- IC50 ([6]; HCT-116, 72 h, read-out: IC50 (95% CI) HCT-116): 60 nM
- IC50 ([6]; HCT-116, 72 h, read-out: IC50 (95% CI) HCT-116 72 h): 60 nM
- SI HPBMC/HCT-116 [6, 10]: 2.3
- IC50 ([7]; 24 h, read-out: IC50 (95% CI) PC-9 24 h): 78800 nM
- IC50 ([7]; 48 h, read-out: IC50 (95% CI) PC-9 48 h): 1010 nM
- IC50 ([7]; 72 h, read-out: IC50 (95% CI) PC-9 72 h): 70 nM
- SI HPBMC/PC-9 [7, 10]: 2
- chemical stability at pH 2 ([8]; HCl buffer pH 2, 37 °C): unstable at pH 2; also recorded: unstable in an acid medium (HCl buffer, pH 2)
- chemical stability at pH 7.4 ([8]; phosphate buffer pH 7.4, 37 °C): stable at pH 7.4 at all time points; also recorded: stable in a practically neutral medium (phosphate buffer, pH 7.4)
- enzymatic inhibition of EGFR-wt [9]: less than 20%
